# Data: US8932563B2, “Higher loading zinc-containing films” (Colgate-Palmolive Company, priority 2009, dated 2015)
# Experiment: Zinc uptake from toothpaste onto artificial soft substrate
# Assay type: in vitro ADME
# Settings: for zinc uptake, ppm: Vitro-Skin incubated 1 hour, 1:2 dilution
# Procedure: Zinc uptake experiments were performed to compare the amount of zinc delivered to an artificial soft substrate using the same level of zinc oxide films in toothpaste with different loadings. The films (Zn30 and Zn50) were incorporated into a MaxFresh Nite toothpaste base. The experiments included comparing:
# Certain parameters for testing were kept constant for the experiments. They included:
# Vitro-Skin incubated for 1 hour
# 1:2 dilution of toothpaste to deionized water
# Two 5 mL washes of deionized water for 10 seconds
# There also was an increase in binding with an increase in film concentration. The zinc uptake method quantifies the amount of zinc delivered to a soft substrate. Vitro-Skin was used as a model substrate because it mimics human skin. […] Also the films act as a delivery vehicle to deposit more zinc onto the substrate than its equivalent in powder form.
# [1] = 1.0% film or powder in toothpaste
compound,measurement,setting,value
"[O-2].[Zn+2] [ZnO Powder, Zinc Oxide]","zinc uptake, μg/cm^2",0.15% powder in toothpaste,5.7 μg/cm^2
same,"zinc uptake, ppm",0.15% powder in toothpaste,2.05 ppm
same,"zinc uptake, μg/cm^2",[1],21.5 μg/cm^2
same,"zinc uptake, ppm",[1],59.7 ppm
